Results from patent US9920022B2, “Small molecule compound and synthesizing method and uses thereof” (TECHNODERMA MEDICINES PTE LTD., priority 2014, dated 2018).
pEC50: −log10 of the molar value.

What was measured:
[1] = target: T1, Thyroid Receptor TRβ (Homo sapiens, UniProt P10828); experiment: Thyroid Receptor TRβ Agonist Assay (luciferase reporter gene, co-transfected HEK-293 cells); assay type: cell-based; conditions: TRβ plasmid + thyroid hormone response element luciferase reporter in HEK-293 cells; 24 hours; maximum concentration 10 μM
T1 construct: expressed in transfected cells; host or cells: HEK-293
T1 sequence (P10828 1-461): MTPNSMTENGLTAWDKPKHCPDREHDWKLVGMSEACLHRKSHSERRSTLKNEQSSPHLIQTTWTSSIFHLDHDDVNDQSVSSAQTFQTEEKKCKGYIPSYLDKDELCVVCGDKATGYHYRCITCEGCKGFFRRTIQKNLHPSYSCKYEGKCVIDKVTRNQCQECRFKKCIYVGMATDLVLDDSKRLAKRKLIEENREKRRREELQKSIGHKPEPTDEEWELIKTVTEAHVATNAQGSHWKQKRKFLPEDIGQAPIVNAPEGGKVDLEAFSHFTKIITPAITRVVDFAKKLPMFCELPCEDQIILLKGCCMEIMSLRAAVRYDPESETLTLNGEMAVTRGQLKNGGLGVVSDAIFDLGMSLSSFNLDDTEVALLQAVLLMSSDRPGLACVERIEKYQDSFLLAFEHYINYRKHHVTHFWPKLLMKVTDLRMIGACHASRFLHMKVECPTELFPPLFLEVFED
Procedure: B: Thyroid Receptor TRβ Agonist Assay
(2) The residual poly-D-lysine is removed. On the 96-well plate, HEK-293 cells are plated at a density of 4.0×10^4 cells/well in DMEM medium containing 10% FBS. The cells are cultured at 37° C. overnight.
(1) The culture medium is removed 2 hours before transfection. 100 μl of DMEM culture medium containing 10% FBS treated by activated carbon is added to each well, and incubated at 37° C. for 2 hours.
3. For each reaction system, 50 ng thyroid receptor (TRβ) plasmid DNA and 50 ng luciferase reporter gene plasmid DNA of thyroid hormone response element are added. Mixing it completely by gentle pipeting.
4. 0.2 μl of transfection reagent X-tremeGENE HP is added to the diluted co-transfected DNA mixture. Mixing it completely by gentle pipeting.
(3) 10 μl of the complex is added to each well in a 96 well plate. Gently shaking the culturing plate to evenly distribute the complex.
(4) The culture is incubated at 37° C. for 24 hours.
(1) Preparation of compound diluent: for each compound, half-log dilutions of each test compound is prepared using DMEM medium containing 10% charcoal stripped FBS (containing 0.1% DMSO), with a maximum concentration of 10 μM of the test compound.
(2) Removing the culture medium and adding the formulated compound diluent (the final DMSO concentration is 0.1%).
(3) For blank control, DMEM medium containing 10% charcoal stripped FBS (containing 0.1% DMSO) is added.
(4) Incubating at 37° C. for 24 hours.
(1) Removing the culture medium, adding 40 μl phosphate (PBS) buffer to each well.
(2) Adding 40 μl Bright-Glo reagent to each well and vortexing for 30 seconds, followed by incubation in dark for 2 min.
(3) Transferring 70 μl cell lysate from each well into a white polystyrene 96-well plate.
(4) Detecting the Luciferase signal intensity by Envision.

[2] = tested on: C3H mice; experiment: Mouse experiment: hair growth after topical administration; assay type: in vivo; conditions: for day of topical administration on which the skin became black / day on which hair growth was observed: 20 μl/mouse topical twice/day
Procedure: A. Mouse Experiment: TMI-105795 is Used as Test Compound in the Experiment
The tested compound (TMI-105795) is sub-packaged into dose volume and kept at −20° C. before use. All tested compounds (including solvents) are labeled as TDM-001-1, TDM-001-2, TDM-001-3 and TDM-001-4.
Female C3H mice (35-39 days after birth at arrival) were obtained from Beijing Vital River Laboratory Animal Technology Co., Ltd. The mice were selected for inclusion based upon acceptable clinical condition and body weight. Animals were housed randomly 5 mice per cage before grouping. All mice were kept at least one week in acclimation in the animal facility prior to any procedures. Animal identification number was labeled on the tail and cage tag respectively.
The test compound is TMI-105795 (solvent is polyethylene glycol/ethanol (30/70)), it is sub-packaged into dose volume and kept in −20° C. before use. It was topically administered together with solvent twice every day at 9:30 am and 4:00 pm.
Hair growth grade, peripheral hair growth, scaling, erythema will be scored on Monday, Wednesday and Friday from the beginning on the Day 1 to the termination of the experiment.
All experimental mice were carefully dipped with the hair on the back of the rear leg with shaver. Care must be taken to avoid any irritation to the skin on the back of mouse. Skin color on the back was confirmed again. All mice must show pink skin, any mice that show signs of skin abrasion were excluded from the experiment. Mice were randomly divided into 5 groups and housed individually.
Body weight of each mouse is recorded before administration every morning. 20 μl corresponding solution is aspirated by pipette and applied to shaving area on the back of the mouse, and then the drug solution is uniformly applied to the back between rear legs with tips, about a region with a diameter of 1 cm. It is ensured that the administered region is the same one every day, and the mouse is put into the case after drying of liquid.
All mice are scored on Monday Wednesday and Friday each week from the beginning on the Day 1 to the termination of the study, using the following scoring guidelines:
a. Hair Growth Grade (Administration Area):
0=No color change, or hair growth on the skin
1=Skin color changes uniformly over the administration area from pink to gray/black with no visible hair growth;
2=Appearance of short and sparse hair growth;
3=Full thick hair growth similar to the surrounding normal hair coat.
b. Peripheral Hair Growth (Defined as Hair Growth that is in the Dipped Area, but not in the Administration Area):
0=No color change, or hair growth on the skin;
1=Skin color changes to gray/black with no visible hair growth;
2=Peripheral sparse hair growth;
3=Peripheral thick hair growth.

[3] = all treatment groups, 3 weeks topical administration

| pEC50 [1] | SMILES | further results |
| --- | --- | --- |
| 6.75 | O=C(NO)C(=O)Nc1cc(Cl)c(Oc2ccc(O)c(Cc3ccc(F)cc3)c2)c(Cl)c1 [TMI-105795, N1-(3,5-dichloro-4-(3-(4-fluorobenzyl)-4-hydroxyphenoxy)phenyl)-N2-oxalyl hydroxylamine] | day of topical administration on which the skin became black ([2]; TDM-001-2 group, 0.005% (w/v)): 12 days; day on which hair growth was observed ([2]; TDM-001-2 group, 0.005% (w/v)): 16 days; day of topical administration on which the skin became black ([2]; TDM-001-3 group, 0.01% (w/v)): 2 days; day on which hair growth was observed ([2]; TDM-001-3 group, 0.01% (w/v)): 6 days; day of topical administration on which the skin became black ([2]; TDM-001-4 group, 0.05% (w/v)): 2 days; day on which hair growth was observed ([2]; TDM-001-4 group, 0.05% (w/v)): 8 days; body weight change during administration ([2]; all groups, 3 weeks topical administration): would not induce the loss of animal body weight; erythema of the skin [2, 3]: not observed; scaling of the skin [2, 3]: not observed; promoting hair growth compared with solvent group ([2]; female C3H mice, topical, twice/day, 5 days/week for 3 weeks, every dosing amount (0.005%, 0.01%, 0.05% w/v)): positive result in promoting hair growth; dose dependence of hair growth effect ([2]; female C3H mice, topical, 0.005%, 0.01%, 0.05% (w/v)): dose dependent effect is observed |
| 6.60 | CS(=O)(=O)c1ccc(Cc2cc(Oc3c(Cl)cc(NC(=O)C(=O)NO)cc3Cl)ccc2O)cc1 [TMI-105902, N1-(3,5-dichloro-4-(3-(4-methylsulphonylbenzyl)-4-hydroxyphenoxy)phenyl)-N2-oxalyl hydroxylamine] |  |
| 6.87 | Cc1ccc(Cc2cc(Oc3c(Cl)cc(NC(=O)C(=O)NO)cc3Cl)ccc2O)cc1 [TMI-105903, N1-(3,5-dichloro-4-(3-(4-methylbenzyl)-4-hydroxyphenoxy)phenyl)-N2-oxalyl hydroxylamine] |  |
| 6.40 | O=C(NO)C(=O)Nc1cc(Cl)c(Oc2ccc(O)c(Cc3ccc(Cl)c(Cl)c3)c2)c(Cl)c1 [TMI-105905, N1-(3,5-dichloro-4-(3-(3,4-dichlorobenzyl)-4-hydroxyphenoxy)phenyl)-N2-oxalyl hydroxylamine] |  |
| 5.03 | O=C(NO)C(=O)Nc1cc(Cl)c(Oc2ccc(O)c(CN3Cc4ccccc4C3)c2)c(Cl)c1 [TMI-105961, N1-(3,5-dichloro-4-(4-hydroxy-3-(isoindolin-2-methyl)phenoxy)phenyl)-N2-oxalyl hydroxylamine] |  |
| 7.02 | O=C(NO)C(=O)Nc1cc(Cl)c(Oc2ccc(O)c(Cc3cccc(F)c3)c2)c(Cl)c1 [TMI-105965] |  |
| 7.21 | O=C(NO)C(=O)Nc1cc(Cl)c(Oc2ccc(O)c(Cc3ccccc3F)c2)c(Cl)c1 [TMI-105966] |  |

More lines, now with the values behind:

| SMILES | pEC50 [1] | further results |
| --- | --- | --- |
| O=C(NO)C(=O)Nc1cc(Cl)c(Oc2ccc(O)c(CN3CCOCC3)c2)c(Cl)c1 [TMI-105906, N1-(3,5-dichloro-4-(4-hydroxy-3-(morpholinomethyl)phenoxy)phenyl)-N2-oxalyl hydroxylamine] | 6.03 |  |
| O=C(NO)C(=O)Nc1cc(Cl)c(Oc2ccc(O)c(CN3CCC(O)CC3)c2)c(Cl)c1 [TMI-105956] | 5.19 |  |
| CN1CCN(Cc2cc(Oc3c(Cl)cc(NC(=O)C(=O)NO)cc3Cl)ccc2O)CC1 [TMI-105957, N1-(3,5-dichloro-4-(4-hydroxy-3-(4-methylpiperazine-1-methyl)phenoxy)phenyl)-N2-oxalyl hydroxylamine] | 5.06 |  |
| O=C(NO)C(=O)Nc1cc(Cl)c(Oc2ccc(O)c(CN3CCCC3)c2)c(Cl)c1 [TMI-105958, N1-(3,5-dichloro-4-(4-hydroxy-3-(methylpyrrolidin-1-methyl)phenoxy)phenyl)-N2-oxalyl hydroxylamine] | 5.01 |  |
| O=C(NO)C(=O)Nc1cc(Cl)c(Oc2ccc(O)c(CN3CCC(Cc4ccccc4)CC3)c2)c(Cl)c1 [TMI-105959] | 6.21 |  |
| O=C(NO)C(=O)Nc1cc(Cl)c(Oc2ccc(O)c(CN3CCc4ccccc4C3)c2)c(Cl)c1 [TMI-105962, N1-(3,5-dichloro-4-(3-(3,4-dihydroisoquinolin-2(1H)-methyl)-4-hydroxyphenoxy)phenyl)-N2-oxalyl hydroxylamine] | 5.43 |  |
| O=C1CN(Cc2cc(Oc3c(Cl)cc(NC(=O)C(=O)NO)cc3Cl)ccc2O)CCN1 [TMI-105963] | 5.02 |  |
